{
  "source": "patent US20060099251A1",
  "about": "“Formulations of finasteride” (priority 2002, published 2006)",
  "origin": "cited, not measured here",
  "data": [
    {"compound": "CC(C)(C)NC(=O)[C@H]1CCC2[C@@H]3CCC4NC(=O)C=C[C@]4(C)C3CC[C@@]21C", "note": "(stereo partly drawn) [Finasteride, 17β-(N-tert-butylcarbamoyl)-4-aza-5α-androst-1-en-3-one]", "values": [
      {"measurement": "solubility in water", "value": "practically insoluble"}
    ]}
  ]
}
